Data as given in patent publication US10287269B2, “Pyrazolyl pyrimidinone compounds as PDE2 inhibitors” (Merck Sharp & Dohme Corp., priority 2015, dated 2019).
Where two headings read alike, the source gives them in different places.

Target: T1, human PDE2A1 (Homo sapiens, UniProt O00408)
T1 construct: GST; purchased BPS Bioscience (San Diego, Calif.) 60020; host or cells: insect cells
Assay: PDE2 IMAP FP inhibition assay, human enzyme (PDE selectivity panel format)
Assay type: biochemical
Method: Selectivity for PDE2, as compared to other PDE families, was assessed using the IMAP® technology. Human PDE10A2 enzyme was prepared from cytosolic fractions of transiently transfected HEK cells. All other PDE's were GST Tag human enzyme expressed in insect cells and were obtained from BPS Bioscience (San Diego, Calif.): PDE1A (Cat#60010), human PDE2A1 (Cat#60020), PDE3A (Cat#60030), PDE4A1A (Cat#60040), PDE5A1 (Cat#60050), PDE6C (Cat#60060), PDE7A (Cat#60070), PDE8A1 (Cat#60080), PDE9A2 (Cat#60090), PDE11A4 (Cat#60110).
Assays for PDE 1 through 11 were performed in parallel at room temperature in 384-well microtiter plates with an incubation volume of 20.2 μL. Solutions of test compounds were prepared in DMSO and serially diluted with DMSO to yield 30 μL of each of ten solutions differing by 3-fold in concentration, at 32 serial dilutions per plate. […] A Labcyte POD 810 (Labcyte, Sunnyvale, Calif.) was used to dispense 200 nL from each well of the titration plate to make eleven copies of the assay plate for each titration, one copy for each PDE enzyme. A solution of each enzyme (dilution from aliquots, sufficient to produce 20% substrate conversion) and a separate solution of FAM-labeled cAMP or FAM-labeled cGMP from Molecular Devices (Sunnyvale, Calif., product # R7506 or cGMP#R7508), at a final concentration of 50 nM were made in the assay buffer (10 mM Tris HCl, pH 7.2, 10 mM MgCl2, 0.05% NaN3 0.01% Tween-20, and 1 mM DTT). Note that the substrate for PDE2 is 50 nM FAM cAMP containing 1000 nM of cGMP. The enzyme and the substrate were then added to the assay plates in two consecutive additions of 10 μL and then shaken to mix. The reaction was allowed to proceed at room temperature for 60 minutes. A binding solution was then made from the kit components, comprised of 80% Solution A, 20% Solution B and binding reagent at a volume of 1/600 the total binding solution. The enzymatic reaction was stopped by addition of 60 μL of the binding solution to each well of the assay plate. The plates were sealed and shaken for 10 seconds. The plates were incubated at room temperature for one hour, then the parallel and perpendicular fluorescence was measured using a Tecan Genios Pro plate reader (Tecan, Switzerland). The apparent inhibition constants for the compounds against all 11 PDE's was determined from the parallel and perpendicular fluorescent readings as described for PDE10 FP assay using the following apparent KM values for each enzyme and substrate combination: PDE1A (FAM cGMP) 70 nM, human PDE2A1 (FAM cAMP) 10,000 nM, PDE3A (FAM cAMP) 50 nM, PDE4A1A (FAM cAMP) 1500 nM, PDE5A1 (FAM cGMP) 400 nM, PDE6C (FAM cGMP) 700 nM, PDE7A (FAM cAMP) 150 nM, PDE8A1 (FAM cAMP) 50 nM, PDE9A2 (FAM cGMP) 60 nM, PDE10A2 (FAM cAMP) 150 nM, PDE11A4 (FAM cAMP) 1000 nM. The intrinsic PDE2 inhibitory activity of a compound which may be used in accordance with the present invention may be determined by these assays. […]

[1] = Lab A, read-out: Human PDE2 Ki (nM) Lab A
[2] = Lab B, read-out: Human PDE2 Ki (nM) Lab B

T1 sequence (O00408 1-920 isoform O00408-2): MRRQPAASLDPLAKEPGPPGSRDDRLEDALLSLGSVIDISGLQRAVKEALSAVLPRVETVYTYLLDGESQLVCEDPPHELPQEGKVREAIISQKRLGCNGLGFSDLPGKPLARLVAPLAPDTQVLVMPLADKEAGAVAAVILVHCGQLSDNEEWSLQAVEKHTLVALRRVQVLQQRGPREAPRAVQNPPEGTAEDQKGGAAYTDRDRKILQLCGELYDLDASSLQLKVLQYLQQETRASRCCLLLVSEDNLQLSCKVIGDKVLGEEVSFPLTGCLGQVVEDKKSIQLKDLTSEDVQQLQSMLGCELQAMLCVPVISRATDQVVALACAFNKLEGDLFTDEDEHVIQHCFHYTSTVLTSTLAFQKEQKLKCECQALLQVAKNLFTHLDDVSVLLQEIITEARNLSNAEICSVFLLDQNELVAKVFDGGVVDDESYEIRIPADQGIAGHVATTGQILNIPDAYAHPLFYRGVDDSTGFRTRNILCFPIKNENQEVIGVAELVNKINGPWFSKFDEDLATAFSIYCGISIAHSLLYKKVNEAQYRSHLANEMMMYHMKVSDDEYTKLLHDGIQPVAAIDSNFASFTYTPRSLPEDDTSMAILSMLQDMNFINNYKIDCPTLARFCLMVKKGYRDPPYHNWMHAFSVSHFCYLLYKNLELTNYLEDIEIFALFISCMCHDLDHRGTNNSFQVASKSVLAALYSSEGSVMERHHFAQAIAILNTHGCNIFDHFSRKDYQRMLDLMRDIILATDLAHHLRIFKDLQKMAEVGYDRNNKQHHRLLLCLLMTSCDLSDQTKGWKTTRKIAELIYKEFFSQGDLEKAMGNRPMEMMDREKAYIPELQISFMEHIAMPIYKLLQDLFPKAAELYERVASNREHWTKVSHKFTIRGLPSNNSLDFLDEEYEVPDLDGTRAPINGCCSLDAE

| Ki [1] [nM] | Ki [2] [nM] | Compound |
| --- | --- | --- |
| 22 | 8.5 | COc1ccc(Cc2nc(-c3cnn(C(C)c4ccc(S(F)(F)(F)(F)F)cc4)c3)cc(=O)[nH]2)cc1OC (single isomer, unassigned) [Example 65, (S)- or (R)-2-(3,4-dimethoxybenzyl)-6-(1-(1-(4-(pentafluorosulfanyl)phenyl)ethyl)-1H-pyrazol-4-yl)pyrimidin-4(3H)-one 4(3H)-one] |
| – | 72 | Cc1nc(-n2cc(C3(C)OCc4cc(C(F)(F)F)ccc43)cn2)cc(=O)[nH]1 (single isomer, unassigned) [Example 28] |
| – | 194 | Cc1nc(-c2cnn(C(C)c3ccc(C(F)(F)F)cc3)c2C)cc(=O)[nH]1 (single isomer, unassigned) [Example 81, (R)- or (S)-2-methyl-6-(5-methyl-1-(1-(4-(trifluoromethyl)phenyl)ethyl)-1H-pyrazol-4-yl)pyrimidin-4(3H)-one] |
| – | 241 | Cc1nc(-n2ccc([C@H](C)c3ccc(C(F)(F)F)cc3)n2)cc(=O)[nH]1 (single isomer, unassigned) [Example 6] |
| 7.9 | – | Cc1nc(-c2cnn(C3(c4ccc(C(F)(F)F)cc4F)CCC3)c2)cc(=O)[nH]1 [Example 37, 6-(1-(1-(2-fluoro-4-(trifluoromethyl)phenyl)cyclobutyl)-1H-pyrazol-4-yl)-2-methylpyrimidin-4(3H)-one] |
| – | 219 | Cc1nc(-n2cc(Cc3ccc(C(F)(F)F)cc3)cn2)cc(=O)[nH]1 [Example 48, 2-methyl-6-(4-(4-(trifluoromethyl)benzyl)-1H-pyrazol-1-yl)pyrimidin-4(3H)-one] |
| – | 85 | Cc1nc(-n2cc([C@H](CO)c3ccc(C(F)(F)F)cc3F)cn2)cc(=O)[nH]1 (single isomer, unassigned) [Example 19] |
| – | 66.6 | COc1ccc(Cc2nc(-n3ccc(C(C)c4ccc(C(F)(F)F)cc4)n3)cc(=O)[nH]2)cc1OC (single isomer, unassigned) [Example 134, (R)- or (S)-2-(3,4-dimethoxybenzyl)-6-(3-(1-(4-(trifluoromethyl)phenyl)ethyl)-1H-pyrazol-1-yl)pyrimidin-4(3H)-one] |
| – | 103 | Cc1nc(-c2cnn(C(C)c3ccc(OC(F)(F)F)cc3)c2)cc(=O)[nH]1 (single isomer, unassigned) [Example 127, (R)- or (S)-2-methyl-6-(1-(1-(4-(trifluoromethoxy)phenyl)ethyl)-1H-pyrazol-4-yl)pyrimidin-4(3H)-one] |
| 38.5 | – | CCc1ccc(C(C)n2cc(-c3cc(=O)[nH]c(C)n3)cn2)c(F)c1 (single isomer, unassigned) [Example 101, (R)- or (S)-6-(1-(1-(4-ethyl-2-fluorophenyl)ethyl)-1H-pyrazol-4-yl)-2-methylpyrimidin-4(3H)-one] |
| – | 199 | Cc1nc(-n2cc([C@]3(c4ccc(C(F)(F)F)cc4)CCCO3)cn2)cc(=O)[nH]1 (single isomer, unassigned) [Example 21] |
| – | 829 | Cc1nc(-c2cnn(Cc3ccc(OC(F)(F)F)cc3)c2)cc(=O)[nH]1 [Example 29, 2-Methyl-6-(1-(4-(trifluoromethoxy)benzyl)-1H-pyrazol-4-yl)pyrimidin-4(3H)-one] |
| – | 40.3 | Cc1nc(-n2cc([C@H](C)c3ccc(C(F)(F)F)cc3)cn2)cc(=O)[nH]1 (single isomer, unassigned) [Example 3] |
| 7.1 | 5.1 | COc1ccc(Cc2nc(-c3cnn(C(C)c4ccc(C(F)(F)F)cc4F)c3)cc(=O)[nH]2)cc1 (single isomer, unassigned) [Example 138, (R)- or (S)-6-(1-(1-(2-fluoro-4-(trifluoromethyl)phenyl)ethyl)-1H-pyrazol-4-yl)-2-(4-methoxybenzyl)pyrimidin-4(3H)-one] |
| 0.2 | 0.1 | COc1ccc(Cc2nc(-c3cnn(C(C)c4ccc(C(F)(F)F)cc4F)c3)cc(=O)[nH]2)cc1OC (single isomer, unassigned) [Example 67] |
| 3.5 | – | COc1cc(Cc2nc(-c3cnn(C(C)c4ccc(C(F)(F)F)cc4F)c3)cc(=O)[nH]2)ccc1F (single isomer, unassigned) [Example 142, (R)- or (S)-2-(4-fluoro-3-methoxybenzyl)-6-(1-(1-(2-fluoro-4-(trifluoromethyl)phenyl)ethyl)-1H-pyrazol-4-yl)pyrimidin-4(3H)-one] |
| – | 38.5 | COc1ccc(Cc2nc(-n3ccc(C(C)c4ccc(C(F)(F)F)cc4)n3)cc(=O)[nH]2)cc1OC (single isomer, unassigned) [Example 133, (R)- or (S)-2-(3,4-dimethoxybenzyl)-6-(3-(1-(4-(trifluoromethyl)phenyl)ethyl)-1H-pyrazol-1-yl)pyrimidin-4(3H)-one] |
| – | 265 | CCCC(c1ccc(C(F)(F)F)cc1)n1cc(-c2cc(=O)[nH]c(C)n2)cn1 (stereo not drawn) [Example 154, 2-methyl-6-(1-(1-(4-(trifluoromethyl)phenyl)butyl)-1H-pyrazol-4-yl)pynmidin-4(3H)-one] |
| 18.2 | 14.4 | Cc1nc(-n2cc([C@H](C)c3ccc(C(F)(F)F)cc3)cn2)cc(=O)[nH]1 (single isomer, unassigned) [Example 4] |
| – | 46.5 | Cc1nc(-c2cnn(C(C)c3ccc(S(F)(F)(F)(F)F)cc3)c2)cc(=O)[nH]1 (single isomer, unassigned) [Example 63, (S)- or (R)-2-methyl-6-(1-(1-(4-(pentafluorosulfanyl)phenyl)ethyl)-1H-pyrazol-4-yl)pyrimidin-4(3H)-one] |
| – | 184 | Cc1nc(-c2cnn(C(C)c3ccc(C(F)(F)F)cc3)c2C)cc(=O)[nH]1 (single isomer, unassigned) [Example 82, (S)- or (R)-2-methyl-6-(5-methyl-1-{(1R)-1-[4-(trifluoromethyl)phenyl]ethyl}-1H-pyrazol-4-yl)pyrimidin-4(3H)-one] |
| 3.7 | 1.1 | COc1ccc(Cc2nc(-c3cnn(C(C)c4ccc(C(F)(F)F)cc4)c3)cc(=O)[nH]2)cc1OC (single isomer, unassigned) [Example 60, (R)- or (S)-2-(3,4-dimethoxybenzyl)-6-(1-(1-4-(trifluoromethyl)phenyl)ethyl)-1H-pyrazol-4-yl)pyrimidin-4(3H)-one] |
| 10.4 | – | CCc1nc(-c2cnn(C(C)c3ccc(C(F)(F)F)cc3F)c2)cc(=O)[nH]1 (single isomer, unassigned) [Example 85, (R)- or (S)-2-ethyl-6-(1-(1-(2-fluoro-4-(trifluoromethyl)phenyl)ethyl)-1H-pyrazol-4-yl)pyrimidin-4(3H)-one] |
| 1240 | – | Cc1ccc(C(C)n2cc(-c3cc(=O)[nH]c(C)n3)cn2)cc1 (stereo not drawn) [Example 153, 2-methyl-6-(1-(1-(p-tolyl)ethyl)-1H-pyrazol-4-yl)pyrimidin-4(3H)-one] |
| 12.3 | 4.9 | Cc1nc(-n2cc(C(C)c3ccc(C(F)(F)F)cc3F)cn2)cc(=O)[nH]1 (single isomer, unassigned) [Example 52, (R)- or (S)-6-(4-(1-(2-fluoro-4-(trifluoromethyl)phenyl)ethyl)-1H-pyrazol-1-yl)-2-methylpyrimidin-4(3H)-one] |
| 41.5 | 17.1 | COc1cc(C(F)(F)F)ccc1[C@@H](C)n1cc(-c2cc(=O)[nH]c(C)n2)cn1 (single isomer, unassigned) [Example 2] |
